Data as given in patent publication US4837316A, “Alkylamide derivatives with H2 -receptor antagonistic and cytoprotective action” (Fujirebio Kabushiki Kaisha, priority 1985, dated 1989).

Tests used:
Histamine H2-receptor = target: T1, Histamine H2-receptor (Cavia porcellus, UniProt P47747); test: Histamine H2-receptor antagonistic action (isolated right atrium, histamine response); conditions: isolated guinea-pig right atrium, 32° C., tested compound 1×10^-6 M or 1×10^-7 M, Van Rossum method; for Kb: read-out: pA2 (converted)
T1 construct: the right atrium was isolated rapidly; from tissue; host or cells: guinea pig right atrium (isolated organ)
Procedure: Histamine H2 -receptor antagonistic actions of the exemplified compounds were measured. Male Guinea-Pig weighing 300 to 350 g was killed by a blow on the head. After thoracotomy, the right atrium was isolated rapidly, and the surrounding tissues of the right atrium was carefully dissected. The preparation was mounted isometrically in 30 ml organ bath containing an oxygenated (O2 95%+CO2 5%) Krebs-Henselite solution at 32° C. 1 g of resting tension was loaded through the experiment. Contraction of the right atrium to histamine was measured with a force-displacement transducer, and heart rate was measured with a heart rate meter. After the control dose-response curve in the presence of tested compound (1×10^-6 M or 1×10^-7 M) was determined.
The pA2 value of each compound was determined from these two curves by the method of J. M. Van Rossum (Arch. Int. Pharmacodyn. Ther 143-299 (1963)).

gastric mucosal leasion = test: Cytoprotective action (gastric mucosal lesion by necrotizing agent 0.4N HCl+50% EtOH); format: in vivo, Male Donryu rats; conditions: Rattus norvegicus, po; 10 mg/kg P.O., 30 minutes before 5 ml/kg 0.4N HCl+50% EtOH; stomach taken 1 hour after; read-out: Repression % (inhibition % of total area of gastric mucosal leasion vs control)
Procedure: Cytoprotective actions of the exemplified compounds were examined.
Male Donryu rats weighing 150-250 g were used after fasting for 24 hours. 10 mg/kg P.O. of the test compound was administrated, and 5 ml/kg of a necrotizing agent (0.4N HCl+50% EtOH) was orally administrated after 30 minutes. After 1 hour from the administration of the necrotizing agent, its stomach was dissected out, and fixed with formalin. Total area of gastric mucosal leasion was measured, and compared with a control group to determine inhibition %.

T1 sequence (P47747 whole entry): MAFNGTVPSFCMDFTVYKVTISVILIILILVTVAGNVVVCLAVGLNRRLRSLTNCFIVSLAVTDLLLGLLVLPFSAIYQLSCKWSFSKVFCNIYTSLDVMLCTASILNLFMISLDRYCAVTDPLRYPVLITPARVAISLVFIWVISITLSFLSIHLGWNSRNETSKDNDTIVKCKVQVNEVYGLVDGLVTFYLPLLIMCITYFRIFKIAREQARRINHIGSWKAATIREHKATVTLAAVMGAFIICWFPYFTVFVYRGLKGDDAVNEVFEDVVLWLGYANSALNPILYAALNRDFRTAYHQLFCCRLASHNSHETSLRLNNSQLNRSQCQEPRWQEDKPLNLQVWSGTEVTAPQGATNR

Row | Structure (SMILES) | Kb (Histamine H2-receptor) [nM] | inhibition in vivo at 10 mg/kg (gastric mucosal leasion) [%] | pA2 (Histamine H2-receptor)
1 | CC(SCC(=O)NCCCOc1cccc(CN2CCCCC2)c1)c1ccco1 (centres unmarked) [Compound 58, N-[3-{3-(piperidinomethyl)phenoxy}propyl]-2-{1-(2-furyl)ethylthio}acetamide] | 31.6 | – | –
2 | O=C(CSCc1ccc(C(=O)O)cc1)NCCCOc1cccc(CN2CCCCC2)c1 [Compound 48, N-[3-{3-(piperidinomethyl)phenoxy}propyl]-2-(4-carboxylbenzylthio)acetamide] | 31.6 | – | –
3 | Cc1ccc(CSCC(=O)NCCCOc2cccc(CN3CCCCC3)c2)o1 [Compound 69, N-[3-{3-(piperidinomethyl)phenoxy}propyl]-2-(5-methyl-furfurylthio)acetamid] | 3.98 | 59 | –
4 | O=C(CSCc1ccc2ccccc2c1)NCCCOc1cccc(CN2CCCCC2)c1 [Compound 21, N-[3-{3-(piperidinomethyl)phenoxy}propyl]-2-(2-naphthylmethylthio)acetamide] | – | 60 | –
5 | O=C(CSCC1CCCCC1)NCCCOc1cccc(CN2CCCCC2)c1 [Compound 16, N-[3-{3-(piperidinomethyl)phenoxy}propyl]-2-(cyclohexylmethylthio)acetamide] | 12.6 | – | –
6 | O=C(C[S+]([O-])Cc1ccccc1)NCCCOc1cccc(CN2CCCCC2)c1 (centres unmarked) [Compound 44, N-[3-{3-(piperidinomehtyl)phenoxy}propyl]-2-(benzylsulfinyl)acetamide] | 251 | 73 | –
7 | O=C(CSCc1ccco1)NCCSCc1ccc(C=CCN2CCCC2)s1 [Compound 93] | – | 43 | –
8 | O=C(CCCSCc1ccccc1)NCCCOc1cccc(CN2CCCCC2)c1 [Compound 30] | – | 62 | –
9 | CC1CCN(Cc2cccc(OCCCNC(=O)CS(=O)(=O)Cc3ccoc3)c2)CC1 [Compound 72] | 100 | 60 | –
10 | O=C(CS(=O)(=O)Cc1ccco1)NCCCOc1cccc(CN2CCCCC2)c1 [Compound 47, N-[3-[3-(piperidinomethyl)phenoxy]propyl]-2-(furfurylsulfonyl)acetamide] | – | 85 | –
11 | Cc1ccc(CSCC(=O)NCCCOc2cccc(CN3CCCCC3)c2)s1 [Compound 112, N-[3-{3-(piperidinomethyl)phenoxy}propyl]-2-{(5methyl-2-thienyl)methylthio}acetamide] | 15.8 | – | –
12 | Cc1cccc(CSCC(=O)NCCCOc2cccc(CN3CCCCC3)c2)n1 [Compound 86] | 25.1 | – | –
13 | O=C(CSCc1ccccc1)NCCCOc1cccc(CN2CCCCC2)c1 [Compound 1, N-[3-{3-(piperidinomethyl)phenoxy}propyl]-2-(benzylthio)acetamide] | 31.6 | 59 | –
14 | O=C(C[S+]([O-])Cc1ccco1)NCCCOc1cccc(CN2CCCCC2)c1 (centres unmarked) [Compound 46, N-[3-[3-(piperidinomethyl)phenoxy}propyl]-2-(furfurylsulfinyl)acetamide] | – | 72 | –
15 | CC(=O)Nc1ccsc1CSCC(=O)NCCCOc1cccc(CN2CCCCC2)c1 [Compound 116, N-[3-{3-(piperidinomethyl)phenoxy}propyl]-2-{(3-acetamide-2-thienyl)methylthio}acetamide] | 31.6 | – | –
16 | COC(=O)c1ccc(CSCC(=O)NCCCOc2cccc(CN3CCCCC3)c2)o1 [Compound 75, N-[3-{3-(piperidinomethyl)phenoxy}propyl]-2-{(5-methoxycarbonyl)furfurylthio}acetamide] | 20 | – | –
17 | NC(N)=Nc1nc(CSCCNC(=O)CSCc2cccs2)cs1 [Compound 106] | 200 | – | –
18 | NC(N)=Nc1nc(CSCCNC(=O)CSCc2ccco2)cs1 [Compound 110] | 79.4 | 58 | –
19 | CC1CCCN(Cc2cccc(OCCCNC(=O)CS(=O)(=O)Cc3ccoc3)c2)C1 (centres unmarked) [Compound 73] | 50.1 | 88 | –
20 | NC(N)=Nc1nc(CSCCNC(=O)CSCc2ccoc2)cs1 [Compound 104] | 200 | 50.6 | –

Row | Structure (SMILES) | Kb (Histamine H2-receptor) [nM] | inhibition in vivo at 10 mg/kg (gastric mucosal leasion) [%] | pA2 (Histamine H2-receptor)
21 | O=C(CSCc1ccco1)NCCSCc1ccc(CN2CCCCC2)s1 [Compound 94] | 316 | – | –
22 | O=C(CSCc1ccco1)NCCCOc1cc(CN2CCCCC2)ccn1 [Compound 100] | 100 | 35 | –
23 | NC(N)=Nc1nc(CSCCNC(=O)CSCC2CCCCC2)cs1 [Compound 107] | 794 | 52.3 | –
24 | O=C(CSCc1ccco1)NCCSCc1ccc(CN2CCCCC2)o1 [Compound 89] | – | 46 | –
25 | O=C(CCCCCSCc1ccccc1)NCCCOc1cccc(CN2CCCCC2)c1 [Compound 35, N-[3-{3-(piperidinomethyl)phenoxy}propyl]-6-(benzylthio)hexylamide] | – | 61 | –
26 | COc1ccc(CSCC(=O)NCCCOc2cccc(CN3CCCCC3)c2)cc1 [Compound 12, N-[3-{3-(piperidinomethyl)phenoxy}propyl]-2-(4-methoxybenzylthio)acetamide] | 50.1 | – | –
27 | O=C(CSCc1ccsc1Cl)NCCCOc1cccc(CN2CCCCC2)c1 [Compound 114, N-[3-{3-(piperidinomethyl)phenoxy}propyl]-2-{(2-chloo-3-thienyl)methylthio}acetamide] | 39.8 | – | –
28 | O=C(CSCc1ccoc1)NCCCOc1cccc(CN2CCCCC2)c1 [Compound 57, N-[3-{3-(piperidinomethyl)phenoxy}propyl]-2-(3-furylmethylthio)acetamide] | 31.6 | 69 | –
29 | COc1ccc(CSCC(=O)NCCCOc2cccc(CN3CCCCC3)c2)nc1 [Compound 79] | 7.94 | 53 | –
30 | O=C(CSCc1ccco1)NCCCOc1cccc(CN2CCCCC2)c1 [Compound 19, N-[3-{3-(piperidinomethyl)phenoxy}propyl]-2-(furfurylthio)acetamide] | 50.1 | 63 | –
31 | CC1CCCCN1Cc1cccc(OCCCNC(=O)CS(=O)(=O)Cc2ccoc2)c1 (centres unmarked) [Compound 74] | 631 | 50 | –
32 | NC(N)=Nc1nc(CSCCNC(=O)CSCc2ccccn2)cs1 [Compound 109] | – | – | 7.6
33 | NC(N)=Nc1nc(CSCCNC(=O)CSCc2ccc3ccccc3c2)cs1 [Compound 108] | – | 51.2 | –
34 | O=C(CS(=O)(=O)Cc1ccccc1)NCCCOc1cccc(CN2CCCCC2)c1 [Compound 45, N-[3-{3-(piperidinomethyl)phenoxy}propyl]-2-(benzylsulfonyl)acetamide] | – | 72 | –
35 | O=C(CSCc1ccc(Cl)s1)NCCCOc1cccc(CN2CCCCC2)c1 [Compound 113, N-[3-{(piperidinomethyl)phenoxy}propyl]-2-{(5-chloro-2-thienyl)methylthio}acetamide] | 25.1 | – | –
36 | NC(N)=Nc1nc(CSCCNC(=O)CSCc2ccccc2)cs1 [Compound 105] | 79.4 | – | –
37 | O=C(CSCCCc1ccccc1)NCCCOc1cccc(CN2CCCCC2)c1 [Compound 14, N-[3-{3-(piperidinomethyl)phenoxy}propyl]-2-(3-phenylpropyl-1-thio)acetamide] | – | 55 | –
38 | O=C(CSCc1cccs1)NCCCOc1cccc(CN2CCCCC2)c1 [Compound 20] | – | 45 | –
39 | O=C(CSCc1cccc(Cl)n1)NCCCOc1cccc(CN2CCCCC2)c1 [Compound 82, N-[3-{3-(piperidinomethyl)phenoxy}propyl]-2-(6-chloro-2-pyridylmethylthio)acetamide] | 20 | 61 | –
